According to patent US20220351803A1, “Predicting The Response Of A Microbiota To Dietary Fibers” (MYOTA GMBH, priority 2019, published 2022):

Experiments:
[1] = dialysis bag constant; cited from earlier work
CaCo cell monolayers = test: Gut monolayer SCFA absorption measurements (Transwell, apical/basal sampling over 24 h); type: in vitro ADME; conditions: CaCo monolayer-derived rate constant
Experimental: Applicants used a gut monolayer system without the immune component, the Gut monolayer was prepared as previously described by WLK Chen et al. (Chen et al., 2017b) Briefly Caco-2 or C2BBe1 along with HT29-MTX-E21 cells (Sigma) were seeded onto rat tail collagen I-(corning 354236) coated Transwell inserts (Corning 3460) in a 9:1 ratio (1×10^5 cells/cm2) in 500 μl seeding medium. The top and bottom compartments of the Transwell Plate were fed with 500 ul and 1.5 ml of seeding medium. The medium was changed every 2-3 days. After 20 days of gut insert maturation, the cell monolayer was ready to use.
Barrier integrity was quantified by TEER (TransEpithelial Electrical Resistance) using the EVOM2 and the Enfohm-12 (World Precision Instruments) at 37° C. Applicants measured cell monolayer integrity at the beginning and the end of the 24 h long experiment. […]
Gut luminal concentrations of microbially-derived SCFAs is a balance between net production in the lumen and absorption by the host epithelium. Unfortunately, quantitative understanding of the rate of absorption of a given SCFA by cells in the gut epithelia is limited. […] Applicants sought to estimate the order of magnitude of this rate constant, to better understand the fate of SCFAs produced by the microbiota in the colon (i.e. the balance between quantities absorbed versus quantities excreted). […]

stool microbiota [2] = test: Ex vivo stool slurry incubation, SCFA production by GC-FID; set-up: species or system human
Experimental: (§1) Fresh stool samples were collected and weighed before being transferred to anaerobic conditions, in which they were diluted in reduced PBS containing 0.1% L-Cysteine to a ratio of 1 g/5 ml. Samples were homogenized into a slurry before being aliquoted into 96-well plates. Samples of the unaltered slurry were taken for a baseline sample, after which inulin, pectin, and cellulose were added from stock solutions to final slurry concentrations of 10 g/L, 5 g/L and 20 g/L, respectively. Concentrations of inulin and pectin were determined based on the maximum stock concentration we were able to obtain in which the dietary fiber was fully dissolved. Four conditions were measured: inulin, pectin, cellulose and control (no spike-in). The samples were incubated anaerobically at 37° C., and two biological replicates (two different wells in the 96-well plates) were collected at each time point. Samples were collected after 2 and 4 hours from all participants and sent out for SCFA quantification on a GC-FID. Linear production rate was measured between 2 h and 4 h because this allowed Applicants maximum accuracy in measuring the time interval without introducing artefacts due to delays between conditions introduced during setup. Results obtained from slurry in large flasks on a shaker were in good agreement with data obtained in a 96-well plate format.
Chromatographic analysis was carried out using an Agilent 7890B system with a flame ionization detector (FID) (Agilent Technologies, Santa Clara, Calif.). A high resolution gas chromatography capillary column 30 m×0.25 mm coated with 0.25 μm film thickness was used (DB-FFAP) for the volatile acids (Agilent Technologies) and a high resolution gas chromatography capillary column 30 m×0.25 mm coated with 0.50 μm film thickness was used (DB-FFAP) for the nonvolatile acids. Nitrogen was used as the carrier gas. […]
The samples were kept frozen at −80° C. until analysis. […] A sample of the raw fecal material was transferred to a 2 mL tube, the weight of the fecal material was determined and 1.5 mL of HPLC water was added to each sample. […]

stool microbiota [3] = test: Ex vivo stool slurry incubation, inulin depletion by inulin-specific ELISA; set-up: species or system human
Experimental: as §1
Applicants use BioPAL's inulin immunoassay kit (BioPAL Worcester Mass.) to measure inulin concentration in filtrate from stool samples and follow manufacture's protocol. […]
To measure SCFA production ex vivo in response to different dietary polysaccharides, stool from 40 healthy human participants was homogenized into a slurry in anaerobic conditions and spiked with inulin, pectin or cellulose (cf. Methods). The slurry was then allowed to evolve over time and samples obtained at regular intervals in order to quantify SCFA content at each timepoint (FIG. 1). In order to determine the appropriate sampling frequency, Applicants performed pilot experiments in which Applicants analysed the trajectory of each SCFA concentration over a 24 h period. […]

CCCC(=O)[O-].[Na+] [butyrate, Sodium Butyrate]
absorption rate constant of butyrate [1]: 0.0019 mmol L-1h-1cm-2 | absorption rate constant of butyrate (CaCo cell monolayers): 0.091 mmol L-1h-1cm-2

cellulose
SCFA production rates versus control (no spike-in) (stool microbiota [2]; 20 g/L cellulose, timepoints 2 h and 4 h): indistinguishable from control

inulin
butyrate concentration over 24 h (stool microbiota [2]; participant C): only produces butyrate from inulin | inulin substrate in slurry after 4 h (stool microbiota [3]; 10 g/L inulin, 4 h): a significant fraction of inulin substrate remained | inulin substrate in slurry by 24 h (stool microbiota [3]; 10 g/L inulin, 24 h, five of the six participants tested): almost entirely consumed | time for the majority of inulin to be fermented by the microbiota ex vivo (stool microbiota [3]; input concentration 10 g/L, most participants): 12 to 24 h

pectin
butyrate concentration over 24 h (stool microbiota [2]; participant G): produces it from pectin as well
